# Source: paper PMC8307506, “Identification of Dihydromyricetin and Metabolites in Serum and Brain Associated with Acute Anti-Ethanol Intoxicating Effects in Mice” (International Journal of Molecular Sciences, 2021)
# Entries after “also recorded” stand apart in the source; their conditions may differ.
# Assays:
# α5β3γ2 GABAA receptors = target: T1, α5β3γ2 GABAA receptors (Homo sapiens, UniProt P18507+P28472+P31644); experiment: Two-electrode voltage clamp electrophysiology in Xenopus oocytes in the presence of GABA; format: cell-based; conditions: compound 10 µM, GABA 10 µM
# T1 construct: expressed in transfected cells; host or cells: Xenopus oocytes (injected with cDNA)
# T1 sequence (P31644 32-462): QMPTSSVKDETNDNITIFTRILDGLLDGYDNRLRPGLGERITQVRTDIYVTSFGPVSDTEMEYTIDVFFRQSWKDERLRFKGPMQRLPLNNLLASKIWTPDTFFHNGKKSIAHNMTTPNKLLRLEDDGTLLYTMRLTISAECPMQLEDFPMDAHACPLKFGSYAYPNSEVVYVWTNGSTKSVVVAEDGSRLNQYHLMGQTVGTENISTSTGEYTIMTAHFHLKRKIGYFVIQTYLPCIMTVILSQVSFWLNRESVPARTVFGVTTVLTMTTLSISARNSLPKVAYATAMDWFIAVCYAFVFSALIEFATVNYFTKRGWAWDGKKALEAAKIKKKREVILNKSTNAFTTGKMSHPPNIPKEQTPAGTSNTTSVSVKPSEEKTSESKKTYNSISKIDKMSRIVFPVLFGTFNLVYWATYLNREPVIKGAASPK
# T1 sequence (P28472 26-473): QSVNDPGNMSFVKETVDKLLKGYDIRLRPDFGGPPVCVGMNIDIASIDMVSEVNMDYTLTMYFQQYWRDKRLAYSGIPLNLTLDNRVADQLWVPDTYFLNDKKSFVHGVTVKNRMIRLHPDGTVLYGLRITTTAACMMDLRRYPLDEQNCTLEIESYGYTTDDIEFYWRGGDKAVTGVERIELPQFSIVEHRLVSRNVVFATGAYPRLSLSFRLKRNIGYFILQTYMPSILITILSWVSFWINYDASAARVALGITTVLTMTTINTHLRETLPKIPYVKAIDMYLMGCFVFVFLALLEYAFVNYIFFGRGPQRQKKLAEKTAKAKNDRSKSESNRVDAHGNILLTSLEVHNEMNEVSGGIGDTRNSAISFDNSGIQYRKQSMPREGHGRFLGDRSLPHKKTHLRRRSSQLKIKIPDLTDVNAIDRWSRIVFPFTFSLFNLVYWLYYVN
# T1 sequence (P18507 40-475): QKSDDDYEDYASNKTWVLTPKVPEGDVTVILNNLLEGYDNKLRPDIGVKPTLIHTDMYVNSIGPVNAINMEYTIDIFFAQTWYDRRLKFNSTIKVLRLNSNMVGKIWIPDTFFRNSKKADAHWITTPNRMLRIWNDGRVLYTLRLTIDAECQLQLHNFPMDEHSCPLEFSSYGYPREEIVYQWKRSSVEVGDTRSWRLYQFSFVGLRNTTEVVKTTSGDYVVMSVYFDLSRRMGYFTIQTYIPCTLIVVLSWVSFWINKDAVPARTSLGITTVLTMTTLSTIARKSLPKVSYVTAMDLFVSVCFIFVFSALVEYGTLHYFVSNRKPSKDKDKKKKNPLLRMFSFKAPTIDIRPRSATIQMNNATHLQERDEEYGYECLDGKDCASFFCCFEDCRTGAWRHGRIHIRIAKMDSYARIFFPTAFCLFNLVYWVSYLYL
# Method: Xenopus oocytes were stored in incubation media (pH 7.5), consisting of ND96 supplemented with 2 mM sodium pyruvate, […] gentamycin, and 10 mL heat inactivated HyClone horse serum. Stage 4 to 5 oocytes were injected with 40 nL of cDNA coding for α5, β3, and γ2 subunits in a ratio of 1:1:10, utilizing a Drummond Nanoject III. Injected oocytes were stored at 18 °C and used in electrophysiology studies within 2–7 days of injection.
# Whole cell two-electrode voltage clamp (TEVC) recording were conducted on oocytes in the presence of GABA, according to previously reported methods. Oocytes were voltage clamped at a membrane potential of −70 mV. The oocyte recording chamber was continuously perfused with modified bath solution (MBS) with select compound (10 µM) and GABA (10 µM), with a final concentration of 1% DMSO [22, 44]. […] Oocytes were perfused at a rate of 3 mL/min. Electrophysiology recordings were conducted in triplicate compound for each compound. The change of GABAAR activity was determined by comparison of GABAAR potentiation to the EC20 with control saline in the presence of GABA.
# Pharmacokinetic parameters were calculated using noncompartmental analysis. Elimination half-life (T1/2) was calculated with R software from the linear regression of the terminal phase of the log serum concentration-time curve. The AUC0→24 was calculated with OriginLab software by trapezoidal analysis of the serum concentration-time plot. Cmax and Tmax were determined directly from observed data. Data are expressed as mean ± SEM. Statistical significance between AUC0→24 among test groups was calculated with an independent t-test (GraphPad software, San Diego, CA, USA). Time to LORR was analyzed by repeated measured ANOVA. Tolerance was determined by mean split in LORR response and confirmed with paired t-test (Week 1 vs. Week 8). Statistical significance of serum concentrations for individual time points was calculated using a two-way analysis of variance (ANOVA) analysis. Post hoc Bonferroni tests were performed when justified. Statistical significance of electrophysiology results compound GABAergic modulation was determined using a paired t-test (Vehicle control vs. Compound, GraphPad software, San Diego CA, USA). p < 0.05 was considered significant.
# [1] = Identification of DHM metabolites in serum and brain by UPLC-QqQ/MS; format: in vivo, mice; conditions: for Detection of metabolite in brain samples: male and female mice 15 min post DHM IP 50 mg/kg; for Detection of metabolite in serum: mice, following DHM 50 mg/kg IP and PO
# Method: Eight-week-old male and female C57BL/6J mice (Jackson’s Laboratories, Bar Harbor, ME, USA) were housed 4 mice to a cage (separated by sex) and maintained on 12-h light, 12-h dark cycles (lights on at 0700 h) in the animal facility at the Department of Animal Sciences, Rutgers University. Following 1-week acclimation, animals were given ad libitum access to water and a polyphenol-free diet (PFD; 3.82 kcal/g, 10% fat, 20% protein, 70% carbohydrate; D12450H; Research Diets, Inc., New Brunswick, NJ, USA) for at least 10 days. For PK studies, after an overnight fast, mice were administered 50 mg/kg DHM (dissolved in 0.9% saline with 10% DMSO) by either IP injection or oral gavage. Oral gavage was performed using single-use, sterile plastic feeding tubes for mice (20 ga × 30 mm; cat# FTP-20-30, Instech Laboratories, (Plymouth Meeting, PA, USA). Mice were deeply anesthetized with 5% isoflurane mixed with oxygen, and blood was collected by cardiac puncture. Following cardiac puncture, animals were exsanguinated and transcardial perfusion with 0.9% saline was performed to ensure blood removal from the brain tissue. Blood and brain samples were collected from a total of 85 mice at 0.25, 0.75, 1.5, 3, 6, 12, 24 h (3–4 mice for each sex and timepoint). Tissues were immediately homogenized with 0.2% formic acid at 1:2 (w/v), and frozen at −80 °C until analysis. Blood was centrifuged at 3000× g for 10 min at 4 °C to isolate serum. For efficacy studies, mice (n = 8/sex) were fasted at 5 h prior to Ethanol gavage 5 g/kg (37% Ethanol in water). DHM 50 mg/kg IP (dissolved in 0.9% saline with 10% DMSO) was administered at 0, 15, 45, 90 and 180 min prior to Ethanol oral gavage. Each mouse was tested at each time point 7 days apart over 6-week period. At the time of Ethanol gavage, mice were placed in oversized conical holders (L: 152 mm X W: 37 mm) and observed for ability to return upright upon being placed in a supine position. Duration of LORR was determined by ability to return upright 3 times within 30 s. To determine whether ethanol-induced tolerance developed, one week (Week 1; Baseline) prior to the 6-week repeated DHM dosing study all mice were oral dose with ethanol (5 g/kg) without any IP injection and LORR was measured. Mice were then re-tested in a similar fashion with oral ethanol 1 week after the DHM 6-week period (Week 8; Post). […] All animal studies were approved by the Institutional Animal Care and Use Committee of Rutgers University (Bello; PROTO999900014, OLAW #A3262-01, 15 March 2017) and complied with NIH Guide for the Care and Use of Laboratory Animals.
# All serum samples were stored at −80 °C and conditioned to room temperature prior to analysis. An aliquot of 100 µL of serum, 20 µL 4M HCl, and 50 µL of internal standard (IS) solution (417 ng/mL isoquercetin in EtOAc) were combined in an Eppendorf tube. An aliquot of 500 µL of EtOAc was added and samples were vortexed for 30 s. Samples were then centrifuged at 3000× g for 2 min and the supernatant transferred to a glass vial. Samples were extracted 2 more times with EtOAc and the supernatant added to the corresponding vial containing 10 µL of 2% ascorbic acid in methanol (MeOH). Samples were then dried under vacuum, reconstituted with 100 µL of 45% MeOH in water with 0.1% formic acid (FA), centrifuged at 16,000× g for 10 min and transferred to an HPLC vial for analysis.
# Whole brain samples were homogenized in FA. All brain homogenates were stored at −80 °C and conditioned to room temperature prior to analysis. An aliquot of 300 µL of brain homogenate was added to 50 µL IS solution (417 ng/mL in EtOAc) and 500 µL of EtOAc in an Eppendorf tube. Samples were then vortexed for 30 s and sonicated for 1 min. Samples were centrifuged for 2 min at 3000× g and the supernatant transferred to a glass vial with 10 µL of 2% ascorbic acid in methanol. Samples were extracted two more times with 500 µL EtOAc and the supernatant transferred to the corresponding vial and dried under vacuum. […]
GABAAR potentiation (α5β3γ2 GABAA receptors),Detection of metabolite in brain samples [1],Detection of metabolite in serum [1],GABAAR potentiation (α5β3γ2 GABAA receptors; mean ± SEM),Molecule
−12.6%,trace levels,detected,,"COc1c(O)cc([C@H]2Oc3cc(O)cc(O)c3C(=O)[C@@H]2O)cc1O (racemic) [4′-Me-DHM, 4′-O-methyl-dihydromyricetin]"
,trace levels,detected,,"COc1cc(C2Oc3cc(O)cc(O)c3C(=O)C2O)cc(O)c1O (stereo not drawn) [3′-Me-DHM, 3′-O-methyl-dihydromyricetin]"
+5.2%,,detected; also recorded: trace levels,+5.3 ± 2.0,"O=C1c2c(O)cc(O)cc2OC(c2cc(O)cc(O)c2)C1O (stereo not drawn) [4′-DeOH-DHM, 4′-dehydroxy-dihydromyricetin]"

# Second part, the molecule before the results:
Molecule,GABAAR potentiation (α5β3γ2 GABAA receptors),Detection of metabolite in brain samples [1],Detection of metabolite in serum [1],GABAAR potentiation (α5β3γ2 GABAA receptors; mean ± SEM)
"COc1cc(C2Oc3cc(O)cc(OC4OC(C(=O)O)C(O)C(O)C4O)c3C(=O)C2O)cc(O)c1O (stereo not drawn) [G-3′-Me-DHM, glucuronide-3′-O-methoxy-dihydromyricetin]",,,detected,
COc1c(O)cc(C2Oc3cc(O)cc(OC4OC(C(=O)O)C(O)C(O)C4O)c3C(=O)C2O)cc1O (stereo not drawn) [G-4′-Me-DHM],,,detected,
"O=C1c2c(OC3OC(C(=O)O)C(O)C(O)C3O)cc(O)cc2OC(c2cc(O)c(O)c(O)c2)C1O (stereo not drawn) [G-DHM, glucuronide-dihydromyricetin]",,,detected,
glucuronide-dehydroxy-dihydromyricetin [G-DeOH-DHM],,,detected,
